# Laboratory results: PubChem BioAssay (NCI)
#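 1) Cells in 96-well plates. 2) Compound, 48 h, 5 concentrations. 3) Linear interpolation between surrounding doses. 4) Unreached endpoint = highest concentration. Definition used: TGI = concentration required for complete inhibition of growth.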
# Key:
# Experiment in all cases: growth of human tumour cells (NCI), 48 h
# [1] = system: RXF 393 renal
# [2] = system: T-47D breast
# [3] = system: A498 renal
# [4] = system: NCI-H522 lung
# [5] = system: ACHN renal
# [6] = system: OVCAR-8 ovarian
# [7] = system: OVCAR-3 ovarian
# [8] = system: CAKI-1 renal
# [9] = system: A549 NSCLC
# [10] = system: MALME-3M melanoma
# [11] = system: DU-145 prostate
# [12] = system: SF-295 CNS
# [13] = system: IGROV1 ovarian
# [14] = system: SK-MEL-2 melanoma
# [15] = system: HS 578T breast
# [16] = system: RPMI-8226 leukemia
# [17] = system: NCI-H23 lung
# [18] = system: CCRF-CEM leukemia
# [19] = system: NCI-H226 lung
# [20] = system: TK-10 renal
# [21] = system: HT29 colon
# [22] = system: NCI/ADR-RES ovarian
# [23] = system: MDA-N
# [24] = system: M14 melanoma
# [25] = system: MDA-MB-435
# [26] = system: K-562 leukemia
# [27] = system: UO-31 renal
# [28] = system: COLO 205 colon
# [29] = system: U251 CNS
# [30] = system: KM12 colon
# [31] = system: MCF7 breast
# [32] = system: SF-268 CNS
# [33] = system: PC-3 prostate
# [34] = system: SW-620 colon
# [35] = system: SNB-75 CNS
# [36] = system: MDA-MB-231 breast
# [37] = system: 786-0 renal
# [38] = system: OVCAR-5 ovarian
# [39] = system: SN12C renal
# [40] = system: HOP-62 NSCLC
# [41] = system: SK-OV-3 ovarian
# [42] = system: BT-549 breast
# [43] = system: SK-MEL-28 melanoma
# [44] = system: HCT-116 colon
# [45] = system: EKVX NSCLC
# [46] = system: HOP-92 NSCLC
# [47] = system: MOLT-4 leukemia
# [48] = system: UACC-62 melanoma
# [49] = system: UACC-257 melanoma
# [50] = system: LOX IMVI melanoma
# [51] = system: HL-60(TB) leukemia
# [52] = system: SK-MEL-5 melanoma
# [53] = system: OVCAR-4 ovarian
# [54] = system: NCI-H460 lung
# [55] = system: SNB-19 CNS
# [56] = system: SF-539 CNS
# [57] = system: HCT-15 colon
# [58] = system: HCC-2998 colon
compound,measurement,setting,value
C#CCOC(=O)C(N)C(C)O (stereo unspecified),TGI,[1],> 100 µM
same,TGI,[2],> 100 µM
same,TGI,[3],> 100 µM
same,TGI,[4],> 100 µM
same,TGI,[5],> 100 µM
same,TGI,[6],> 100 µM
same,TGI,[7],> 100 µM
same,TGI,[8],> 100 µM
same,TGI,[9],> 100 µM
same,TGI,[10],> 100 µM
same,TGI,[11],> 100 µM
same,TGI,[12],> 100 µM
same,TGI,[13],> 100 µM
same,TGI,[14],> 100 µM
same,TGI,[15],> 100 µM
same,TGI,[16],> 100 µM
same,TGI,[17],> 100 µM
same,TGI,[18],> 100 µM
same,TGI,[19],> 100 µM
same,TGI,[20],> 100 µM
same,TGI,[21],> 100 µM
same,TGI,[22],> 100 µM
same,TGI,[23],> 100 µM
same,TGI,[24],> 100 µM
same,TGI,[25],> 100 µM
same,TGI,[26],> 100 µM
same,TGI,[27],> 100 µM
same,TGI,[28],> 100 µM
same,TGI,[29],> 100 µM
same,TGI,[30],> 100 µM
same,TGI,[31],> 100 µM
same,TGI,[32],> 100 µM
same,TGI,[33],> 100 µM
same,TGI,[34],> 100 µM
same,TGI,[35],> 100 µM
same,TGI,[36],> 100 µM
same,TGI,[37],> 100 µM
same,TGI,[38],> 100 µM
same,TGI,[39],> 100 µM
same,TGI,[40],> 100 µM
same,TGI,[41],> 100 µM
same,TGI,[42],> 100 µM
same,TGI,[43],> 100 µM
same,TGI,[44],> 100 µM
same,TGI,[45],> 100 µM
same,TGI,[46],> 100 µM
same,TGI,[47],> 100 µM
same,TGI,[48],> 100 µM
same,TGI,[49],> 100 µM
same,TGI,[50],> 100 µM
same,TGI,[51],> 100 µM
same,TGI,[52],> 100 µM
CCOP(=O)(/C=C/n1ccc(N)nc1=O)OCC,TGI,[1],> 100 µM
same,TGI,[2],> 100 µM
same,TGI,[3],> 100 µM
same,TGI,[4],> 100 µM
same,TGI,[5],> 100 µM
same,TGI,[6],> 100 µM
same,TGI,[7],> 100 µM
same,TGI,[53],> 100 µM
same,TGI,[8],> 100 µM
same,TGI,[9],> 100 µM
same,TGI,[11],> 100 µM
same,TGI,[12],> 100 µM
same,TGI,[13],> 100 µM
same,TGI,[14],> 100 µM
same,TGI,[54],> 100 µM
same,TGI,[15],> 100 µM
same,TGI,[16],> 100 µM
same,TGI,[17],> 100 µM
same,TGI,[18],> 100 µM
same,TGI,[19],> 100 µM
same,TGI,[20],> 100 µM
same,TGI,[21],> 100 µM
same,TGI,[22],> 100 µM
same,TGI,[23],> 100 µM
same,TGI,[55],> 100 µM
same,TGI,[24],> 100 µM
same,TGI,[25],> 100 µM
same,TGI,[56],> 100 µM
same,TGI,[26],> 100 µM
same,TGI,[28],> 100 µM
same,TGI,[29],> 100 µM
same,TGI,[30],> 100 µM
same,TGI,[31],> 100 µM
same,TGI,[57],> 100 µM
same,TGI,[32],> 100 µM
same,TGI,[33],> 100 µM
same,TGI,[34],> 100 µM
same,TGI,[35],> 100 µM
same,TGI,[36],> 100 µM
same,TGI,[37],> 100 µM
same,TGI,[38],> 100 µM
same,TGI,[39],> 100 µM
same,TGI,[40],> 100 µM
same,TGI,[41],> 100 µM
same,TGI,[42],> 100 µM
same,TGI,[43],> 100 µM
same,TGI,[44],> 100 µM
same,TGI,[45],> 100 µM
same,TGI,[47],> 100 µM
same,TGI,[48],> 100 µM
same,TGI,[49],> 100 µM
same,TGI,[50],> 100 µM
same,TGI,[51],> 100 µM
same,TGI,[52],> 100 µM
c1ccc([Si](OCCN2CC2)(c2ccccc2)c2ccccc2)cc1,TGI,[1],19.2 µM
same,TGI,[2],39.9 µM
same,TGI,[58],26.4 µM
same,TGI,[4],25.5 µM
same,TGI,[5],27.9 µM
same,TGI,[6],33.1 µM
same,TGI,[7],31.3 µM
same,TGI,[53],22.7 µM
same,TGI,[8],44.8 µM
same,TGI,[9],24.1 µM
same,TGI,[10],31.3 µM
same,TGI,[11],27.5 µM
same,TGI,[12],27.4 µM
same,TGI,[13],25.5 µM
same,TGI,[14],18.4 µM
same,TGI,[54],25 µM
same,TGI,[15],24.9 µM
same,TGI,[16],36.9 µM
same,TGI,[17],29 µM
same,TGI,[18],49.5 µM
same,TGI,[19],29.8 µM
same,TGI,[20],29.1 µM
same,TGI,[21],27 µM
same,TGI,[22],28.1 µM
same,TGI,[23],28.1 µM
same,TGI,[55],16 µM
same,TGI,[24],29.3 µM
same,TGI,[25],26.7 µM
same,TGI,[56],26.9 µM
same,TGI,[26],26.8 µM
same,TGI,[27],28.4 µM
same,TGI,[28],24.7 µM
same,TGI,[29],27 µM
same,TGI,[30],35.2 µM
same,TGI,[31],31.8 µM
same,TGI,[57],21.9 µM
same,TGI,[32],23 µM
same,TGI,[33],26.3 µM
same,TGI,[34],27.8 µM
same,TGI,[36],28 µM
same,TGI,[37],27.2 µM
same,TGI,[38],27.7 µM
same,TGI,[39],27.3 µM
same,TGI,[40],30 µM
same,TGI,[41],27.5 µM
same,TGI,[42],31.5 µM
same,TGI,[44],27.7 µM
same,TGI,[45],25.4 µM
same,TGI,[46],18.4 µM
same,TGI,[47],36.3 µM
same,TGI,[48],27.2 µM
same,TGI,[49],33.2 µM
same,TGI,[50],27.6 µM
same,TGI,[51],50.8 µM
same,TGI,[52],29.2 µM
